Tested on: Diabetic rats
Test: In vivo study of effect on Nerve Conduction Velocity (NCV) in streptozotocin-induced diabetic rats
Conditions: 150 mg/kg, 8 weeks of treatment after 12 weeks of diabetes, streptozotocin diabetic male Wistar rats; compared with diabetic control rats treated with vehicle; ***p<0.001 by student's t-test (FIG. 1)
Description: Motor nerve conduction velocity evaluation was performed as a measure of AGE related diabetic complications.
In vivo study to evaluate effect of compound of present invention on Nerve Conduction Velocity
Healthy male Wistar rats, 170-250 g, 6-10 weeks old, were selected for the study. The animals were divided into two groups i.e. a non-diabetic control group (Normal Control Rats) and a diabetic group. Diabetes was induced (in the diabetic group of animals) by a single intraperitoneal injection of streptozotocin (60 mg/kg body weight) dissolved in citrate buffer (pH 4.5) (Biro et al; Brain Research Bulletin (1997) 44(3): 259-263). […]
150 mg/kg of Compound No 1 was administered to diabetic rats and diabetic control group was treated with vehicle for Compound 1. The rats were monitored throughout the experiment for water intake, food intake, changes in body weight, blood biochemistry parameters, urine parameters and mortality. […]
After 8 weeks of treatment NCV was estimated as described by Biro et al, (1997). […] Electromyograms (EMG's) from the plantar muscles were amplified and recorded using a data acquisition system (MacLab®, ADI instruments). […] Latency and the duration of the M responses were measured and the motor nerve conduction velocity (MNCV) was calculated. […]
Anode was placed in proximity to the cathode. Upon stimulation of the nerve, responses (EMG) were recorded from the plantar surface. […]

SMILES: CS(=O)(=O)NNC(=O)c1ccc[n+](CC(=O)c2cccs2)c1 [Compound 1]
- Nerve Conduction Velocity (NCV): improvement in NCV

— patent US10717727B2, “Pyridinium compounds” (TORRENT PHARMACEUTICALS LIMITED, priority 2015, dated 2020)
